Data taken from patent US20220378739A1, “NATURAL KILLER CELL IMMUNOTHERAPY FOR THE TREATMENT OF GLIOBLASTOMA AND OTHER CANCERS” (BOARD OF REGENTS, THE UNIVERSITY OF TEXAS SYSTEM, priority 2019, published 2022).

Test system: TiNKs / HC-NK cells rendered dysfunctional by GSCs
Test: Reversal of established NK cell dysfunction (TiNKs ex vivo; NK cell recovery assays)
Type: cell-based, human
Description: FIGS. 11A-11G. […] (FIG. 11A) NK cells were incubated with or without galunisertinib (10 μM) or LY2109761 (10 μM) for 48 hours. Representative zebra plots show their CD107a, IFN-γ, and TNF-α response to K562 targets. NK cells were gated on CD3-CD56+ lymphocytes. Inset numbers are the percentages of CD107a-, IFN-γ- or TNF-α-positive NK cells within the gated NK cell population. (FIGS. 11B-11C) NK cells were cultured either alone or with GSCs in a 1:1 ratio with or without LY2109761 or galunisertib for 48 hrs. Representative zebra plots and summary box plots show their CD107, IFN-γ, and TNF-α expression response to K562 (FIG. 11B) or GSC (FIG. 11C) targets. Effector:target ratio is 5:1. NK cells were defined as CD3-CD56+ lymphocytes. Inset numbers are the percentages of CD107a-, IFN-γ- or TNF-α-positive NK cells (n=7, n=4 respectively). (FIG. 11D) TiNK cells were cultured for 24 hours in media with 5 ng/ml IL-15 with or without galunisertib. Representative zebra plots and bar graph summary show their CD107, IFN-γ, and TNF-α response to K562 targets. Effector:target ratio is 5:1. NK cells were gated on CD3-CD56+ lymphocytes. Inset numbers are the percentages of CD107a-, IFN-γ- or TNF-α-positive NK cells within the indicated regions. (n=3). (FIG. 11E) TiNK cells and paired PB-NK cells from GBM patients were cultured in the presence or absence of galunisertib for 12 hours. The bar graphs summarize the mean fluorescence intensity (MFI) for their p-Smad⅔ expression. Paired t test was performed to determine statistical significance (n=3). (FIG. 11F) Specific lysis (^51Cr release assay) of K562 targets by NK cells. After 48 hours of culture alone (blue lines) or with GSCs, healthy donor NK cells were either left with GSCs (red lines), or purified and re-suspended in media for another 48 hours (black lines). NK cells were then collected and used for ^51Cr release assay (n=4). (FIG. 11G) Specific lysis (^51Cr release assay) of K562 targets by NK cells. After 48 hours of culture alone (blue lines) or with GSCs, healthy donor NK cells were either left with GSCs ([…]) or purified and cultured in SCGM media plus 5 ng/ml IL-15 with (black lines) or without galunisertib (10 μM) (gray lines) for […]. At the end of the culture period, their cytotoxicity was tested against k562 targets by ^51Cr release assay (n=4).
NK cells were cultured either with GSCs in a 1:1 ratio or alone for 48 hours. After 48 hours of co-incubation, NK cells were then either purified again by bead selection and resuspended in SCGM media or remained in culture with GSCs for an additional 48 hours and then used for ^51Cr release assay. In a second assay, after reselection, NK cells were cultured for another 5 days in SCGM in the presence of 5 ng/ml IL-15 with or without 10 μM galunisertib before use for ^51Cr release assay.

## Cc1cccc(-c2nn3c(c2-c2ccnc4ccc(C(N)=O)cc24)CCC3)n1 [galunisertib]
NK cells purified after 48 hours with GSCs, then IL-15 5 ng/ml with or without galunisertib 10 μM
  reversal of GSC-induced dysfunction of HC-NK cells: did not reverse the dysfunction of HC-NK cells induced by GSCs
TiNKs cultured 24 hours, galunisertib 10 μM or IL-15 5 ng/ml
  restoration of TiNK function (specific lysis of K562; CD107, IFN-γ, TNF-α): failed to inactivate the TGF-β1 Smad⅔ signaling pathway and restore NK cell dysfunction
TiNKs from GBM patients cultured ex vivo, galunisertib 12 hours or IL-15
  TGF-β1 Smad⅔ signaling in TiNKs: failed to inactivate the TGF-β1 Smad⅔ signaling pathway
